In ChEMBL document CHEMBL5518181, “Studies of antibacterial activity (in vitro and in vivo) and mode of action for des-acyl tridecaptins (DATs)” (Eur J Med Chem, 2024):
Active and inactive are the calls of the source.

Columns and labels:
Staphylococcus aureus [1] = experiment: Antibacterial activity against wild type Staphylococcus aureus USA300 assessed as inhibition of bacterial growth incubated for 18 hrs; format: functional; conditions: read-out: MIC100
Escherichia coli [2] = experiment: Antibacterial activity against Escherichia coli ATCC 25922 harboring tolC knock-out assessed as inhibition of bacterial growth incubated for 18 hrs; format: functional; conditions: read-out: MIC100
Enterobacter cloacae = experiment: Antibacterial activity against Enterobacter cloacae ATCC 23355 assessed as inhibition of bacterial growth incubated for 18 hrs; format: functional; conditions: read-out: MIC100
Escherichia coli [3] = experiment: Antibacterial activity against Escherichia coli ATCC BAA-2469 expressing NDM-1 assessed as inhibition of bacterial growth incubated for 18 hrs; format: functional; conditions: read-out: MIC100
Klebsiella pneumoniae [4] = experiment: Antibacterial activity against Klebsiella pneumoniae ATCC 13883 assessed as inhibition of bacterial growth incubated for 18 hrs in presence of 5 mM KCl; format: functional, organism-based
[5] = Clearance in mouse microsomes; format: ADME, Microsome
[6] = Aqueous solubility of compound at pH 4.6; format: physicochemical
Serratia marcescens = experiment: Antibacterial activity against intrinsically colistin resistant Serratia marcescens ATCC 13880 assessed as inhibition of bacterial growth incubated for 18 hrs; format: functional; conditions: read-out: MIC100
Klebsiella pneumoniae [7] = experiment: Antibacterial activity against Klebsiella pneumoniae ATCC 43816 assessed as inhibition of bacterial growth incubated for 18 hrs; format: functional; conditions: read-out: MIC100
Pseudomonas aeruginosa [8] = experiment: Antibacterial activity against efflux-deficient Pseudomonas aeruginosa PAO750 assessed as inhibition of bacterial growth incubated for 18 hrs; format: functional; conditions: read-out: MIC100
Citrobacter freundii = experiment: Antibacterial activity against Citrobacter freundii ATCC 8090 assessed as inhibition of bacterial growth incubated for 18 hrs; format: functional; conditions: read-out: MIC100
[9] = Clearance in human microsomes; format: ADME, Microsome
[10] = Drug uptake in Pseudomonas aeruginosa PAO1 whole cells at 10 uM incubated for 10 mins by LC-MS/MS analysis; format: ADME
Escherichia coli [11] = experiment: Antibacterial activity against wild-type Escherichia coli ATCC 25922 assessed as inhibition of bacterial growth incubated for 18 hrs; format: functional; conditions: read-out: MIC100
Cell membrane [12] = experiment: Induction of membrane permeabilization in Klebsiella pneumoniae ATCC 13883 at 64 ug/ml measured after 2 hrs by Sytox Green labelling based microscopic analysis; format: cell membranes; conditions: dose 64.0 µg/ml
[13] = Hydrophobicity of compound assessed as %MeCN at peak elution by RP-HPLC analysis; format: physicochemical
Staphylococcus aureus [14] = experiment: Antibacterial activity against […] assessed as inhibition of bacterial growth incubated for 18 hrs; format: functional; conditions: ATCC 29213, read-out: MIC100
Proteus mirabilis [15] = experiment: Antibacterial activity against Proteus mirabilis ATCC 7002 assessed as inhibition of bacterial growth incubated for 18 hrs; format: functional; conditions: read-out: MIC100
Salmonella typhimurium = experiment: Antibacterial activity against Salmonella typhimurium ATCC 13311 assessed as inhibition of bacterial growth incubated for 18 hrs; format: functional, Salmonella enterica subsp. enterica serovar Typhimurium; conditions: Salmonella enterica, read-out: MIC100
Klebsiella pneumoniae [16] = experiment: Antibacterial activity against Klebsiella pneumoniae ATCC 13883 assessed as inhibition of bacterial growth incubated for 18 hrs in presence of 2 mM CaCl2; format: functional, organism-based
Escherichia coli [17] = experiment: Antibacterial activity against wild-type Escherichia coli ATCC 25922 assessed as inhibition of bacterial growth incubated for 18 hrs in presence of 50% heat inactivated human serum; format: functional; conditions: read-out: MIC100
Lipopolysaccharide (LPS) [18] = experiment: Binding affinity to Escherichia coli O55:B5 LPS assessed as dissociation constant by ITC analysis; format: subcellular
Klebsiella aerogenes = experiment: Antibacterial activity against Enterobacter aerogenes ATCC 13048 assessed as inhibition of bacterial growth incubated for 18 hrs; format: functional; conditions: read-out: MIC100
Escherichia coli [19] = experiment: Antibacterial activity against Escherichia coli ATCC 25922 assessed as inhibition of bacterial growth incubated for 18 hrs in presence of 150 mM NaCl; format: functional, organism-based
Cell membrane [20] = experiment: Induction of membrane permeabilization in Escherichia coli ATCC 25922 at 64 ug/ml measured after 2 hrs by Sytox Green labelling based microscopic analysis; format: cell membranes; conditions: dose 64.0 µg/ml
Klebsiella pneumoniae [21] = experiment: Antibacterial activity against Klebsiella pneumoniae ATCC 13883 assessed as inhibition of bacterial growth incubated for 18 hrs in presence of 25 mM bicarbonate; format: functional, organism-based
Cell membrane [22] = experiment: Induction of membrane permeabilization in Klebsiella pneumoniae ATCC 13883 at 64 ug/ml measured after 30 mins by Sytox Green labelling based microscopic analysis; format: cell membranes; conditions: dose 64.0 µg/ml
Providencia stuartii = experiment: Antibacterial activity against Providencia stuartii ATCC 25826 assessed as inhibition of bacterial growth incubated for 18 hrs; format: functional; conditions: read-out: MIC100
Escherichia coli [23] = experiment: Antibacterial activity against colistin resistant Escherichia coli NCTC 13846 harboring mcr-1 gene assessed as inhibition of bacterial growth incubated for 18 hrs; format: functional; conditions: read-out: MIC100
Cell membrane [24] = experiment: Induction of membrane permeabilization in Escherichia coli ATCC 25922 at 64 ug/ml measured after 30 mins by Sytox Green labelling based microscopic analysis; format: cell membranes; conditions: dose 64.0 µg/ml
[25] = Drug uptake in Escherichia coli ATCC 25922 whole cells at 10 uM incubated for 10 mins by LC-MS/MS analysis; format: ADME
Escherichia coli [26] = experiment: Antibacterial activity against Escherichia coli ATCC 25922 assessed as inhibition of bacterial growth incubated for 18 hrs in presence of 2 mM MgCl2; format: functional, organism-based
Proteus mirabilis [27] = experiment: Antibacterial activity against Proteus mirabilis ATCC 25933 assessed as inhibition of bacterial growth incubated for 18 hrs; format: functional; conditions: read-out: MIC100
Pseudomonas aeruginosa [28] = experiment: Antibacterial activity against wild-type Pseudomonas aeruginosa PAO1 assessed as inhibition of bacterial growth incubated for 24 hrs; format: functional; conditions: read-out: MIC100
[29] = Clearance in rat microsomes; format: ADME, Microsome
[30] = Lipophilicity, logD of compound at pH 7.4; format: physicochemical; conditions: buffer
[31] = Drug uptake in Escherichia coli ATCC 25922 at 10 uM incubated for 10 mins by LC-MS/MS analysis; format: ADME
[32] = Aqueous solubility of compound at pH 7.4; format: physicochemical
[33] = Binding affinity to gram negative bacterial lipid II assessed as dissociation constant by ITC analysis; set-up: species or system Bacteria
[34] = Drug uptake in Proteus mirabilis ATCC 7002 whole cells at 10 uM incubated for 10 mins by LC-MS/MS analysis; format: ADME
Klebsiella pneumoniae [35] = experiment: Antibacterial activity against wild-type Klebsiella pneumoniae ATCC 13883 assessed as inhibition of bacterial growth incubated for 18 hrs in presence of 50% heat inactivated human serum; format: functional; conditions: read-out: MIC100
Acinetobacter baumannii = experiment: Antibacterial activity against wild-type Acinetobacter baumannii ATCC 19606 assessed as inhibition of bacterial growth incubated for 20 hrs; format: functional; conditions: read-out: MIC100
Escherichia coli [36] = experiment: Antibacterial activity against Escherichia coli ATCC 25922 assessed as inhibition of bacterial growth incubated for 18 hrs in presence of 5 mM KCl; format: functional, organism-based
[37] = Hemolytic activity in human red blood cells at 400 ug/ml incubated for 45 mins by spectrophotometric analysis relative to control; format: toxicity, cell-based, Erythrocyte; conditions: red blood cells (erythrocytes), at 400 µg/mL, read-out: Activity
Cell membrane [38] = experiment: Induction of membrane permeabilization in Escherichia coli ATCC 25922 at 64 ug/ml measured immediately by Sytox Green labelling based microscopic analysis; format: cell membranes; conditions: dose 64.0 µg/ml
Klebsiella pneumoniae [39] = experiment: Antibacterial activity against wild-type Klebsiella pneumoniae ATCC 13883 assessed as inhibition of bacterial growth incubated for 18 hrs; format: functional; conditions: read-out: MIC100
Morganella morganii = experiment: Antibacterial activity against Morganella morganii ATCC 25830 assessed as inhibition of bacterial growth incubated for 18 hrs; format: functional; conditions: read-out: MIC100
[40] = Drug uptake in Acinetobacter baumannii ATCC 19606 whole cells at 10 uM incubated for 10 mins by LC-MS/MS analysis; format: ADME
Lipopolysaccharide (LPS) [41] = experiment: Binding affinity to Pseudomonas aeruginosa LPS assessed as dissociation constant by ITC analysis; format: subcellular
[42] = Drug localization in cytoplasm of Escherichia coli ATCC 25922 at 10 uM incubated for 10 mins by LC-MS/MS analysis; format: ADME, subcellular
Klebsiella pneumoniae [43] = experiment: Antibacterial activity against Klebsiella pneumoniae ATCC 13883 assessed as inhibition of bacterial growth incubated for 18 hrs in presence of 2 mM MgCl2; format: functional, organism-based
Escherichia coli [44] = experiment: Antibacterial activity against Escherichia coli ATCC 25922 assessed as inhibition of bacterial growth incubated for 18 hrs in presence of 2 mM CaCl2; format: functional, organism-based
[45] = Cytotoxicity against human HepG2 cells incubated for 40 hrs by celltiter-glo luminescent cell viability assay; format: toxicity, cell-based
Escherichia coli [46] = experiment: Antibacterial activity against Escherichia coli ATCC 25922 assessed as inhibition of bacterial growth incubated for 18 hrs in presence of 25 mM bicarbonate; format: functional, organism-based
Escherichia coli [47] = experiment: Antibacterial activity against Escherichia coli ATCC 25922 harboring hldE knock-out assessed as inhibition of bacterial growth incubated for 18 hrs; format: functional; conditions: read-out: MIC100
Klebsiella pneumoniae [48] = experiment: Antibacterial activity against Klebsiella pneumoniae ATCC BAA-2470 expressing NDM-1 assessed as inhibition of bacterial growth incubated for 18 hrs; format: functional; conditions: read-out: MIC100
Klebsiella pneumoniae [49] = experiment: Antibacterial activity against Klebsiella pneumoniae ATCC 13883 assessed as inhibition of bacterial growth incubated for 18 hrs in presence of 150 mM NaCl; format: functional, organism-based

CC[C@H](C)[C@@H](NC(=O)[C@@H](NC(=O)[C@H](CCC(=O)O)NC(=O)[C@H](Cc1ccccc1)NC(=O)[C@@H](CCN)NC(=O)[C@H](CCN)NC(=O)[C@H](CO)NC(=O)[C@@H](Cc1c[nH]c2ccccc12)NC(=O)[C@@H](CO)NC(=O)CNC(=O)[C@@H](CCN)NC(=O)[C@H](N)C(C)C)C(C)C)C(=O)N[C@@H](C)C(=O)O
Active: Drug uptake [31] | Drug uptake [42]
1.09: logD [30]
> 32 µg/mL: MIC (Staphylococcus aureus [1]) | MIC (Escherichia coli [2]) | MIC (Enterobacter cloacae) | MIC (Escherichia coli [3]) | MIC (Pseudomonas aeruginosa [8]) | MIC (Salmonella typhimurium) | MIC (Klebsiella aerogenes) | MIC (Providencia stuartii) | MIC (Proteus mirabilis [27]) | MIC (Morganella morganii)
~ 60 ng: Drug uptake [10] | Drug uptake [25] | Drug uptake [34] | Drug uptake [40]
42%: MeCN percentage at peak elution [13]
13.5 µM: Kd (Lipopolysaccharide (LPS) [41])
108 µL/min/mg: microsomal CLint [29]
25 µL/min/mg: microsomal CLint [5]
inactive: Activity (Cell membrane [22]) | Activity (Cell membrane [24]) | Activity (Cell membrane [38])
5.7 µM: Kd (Lipopolysaccharide (LPS) [18])
active: Activity (Klebsiella pneumoniae [4]) | Activity (Cell membrane [12]) | Activity (Klebsiella pneumoniae [16]) | Activity (Escherichia coli [19]) | Activity (Cell membrane [20]) | Activity (Klebsiella pneumoniae [21]) | Activity (Escherichia coli [26]) | Activity (Escherichia coli [36]) | Activity (Klebsiella pneumoniae [43]) | Activity (Escherichia coli [44]) | Activity (Escherichia coli [46]) | Activity (Klebsiella pneumoniae [49])
32 µg/mL: MIC (Serratia marcescens) | MIC (Citrobacter freundii) | MIC (Escherichia coli [11]) | MIC (Staphylococcus aureus [14]) | MIC (Escherichia coli [17]) | MIC (Escherichia coli [23]) | MIC (Acinetobacter baumannii) | MIC (Klebsiella pneumoniae [39]) | MIC (Klebsiella pneumoniae [48])
> 64 µg/mL: MIC (Proteus mirabilis [15]) | MIC (Pseudomonas aeruginosa [28])
> 1000 µg/mL: solubility [6] | solubility [32]
0.6 µM: Kd [33]
3.6%: hemolysis at 0.75 h, 400 ug/ml [37]
8 µg/mL: MIC (Klebsiella pneumoniae [7]) | MIC (Klebsiella pneumoniae [35]) | MIC (Escherichia coli [47])
76 µg/mL: IC50 at 40 h [45]
22 µL/min/mg: microsomal CLint [9]
